The text below walks through data of patent publication US11744903B2, “Method for preparing cyclodextrin metal organic framework (CD-MOF) stable in aqueous phase” (Qilu University of Technology, priority 2022, dated 2023).

A short description of this data set: Encapsulation rate of β-CD-MOF for active substances. In kind it is physicochemical. The conditions noted are these: carrier β-CD-MOF; loaded by impregnation, Examples 1-5.
The compound `Cc1coc2c1C(=O)C(=O)c1c-2ccc2c1CCCC2(C)C` [Tanshinone IIA, tanshinone IIA] had an Encapsulation rate of 76.40 ± 0.67%.

As for `O=C/C=C/c1ccccc1` [Cinnamic aldehyde, cinnamic aldehyde], the Encapsulation rate was found to be 79.68 ± 0.28%.

On to `Oc1ccc(C=Cc2cc(O)cc(O)c2)cc1` [Resveratrol, resveratrol], for which the Encapsulation rate is 82.19 ± 0.35%.

On to `COc1cc2c(=O)c(-c3ccc(O)cc3)coc2cc1O` [Glycitein, glycitein], for which the Encapsulation rate turned out to be 76.34 ± 0.23%.

Take `O=C1C[C@@H](c2ccc(O)cc2)Oc2cc(O)cc(O)c21` [Naringenin, naringenin]: the Encapsulation rate turned out to be 70.23 ± 0.15%.
